Patent US20250000942A1, “PEPTIDES AND METHODS OF TRANSPLANTATION AND RESTORATIVE ORGAN FUNCTION” (Prince Biotech, LLC, priority 2017, published 2025)

Columns and labels:
Assay type in all cases: cell-based, human
JEG-3 cells [1] = assay: ELISA for cytokine secretion by JEG-3 cells; details: JEG-3, serum-free media, 24 hours, P4 1 μg/ml
Method: At the end of the experiments the supernatant was collected and analyzed for cytokine levels. The concentrations of tumor necrosis factor alpha (TNF-a), interleukin (IL)-1, IL-8, IL-10, interferon gamma (IFN-γ), transforming growth factor beta 1 (TGF-[…]) and granulocyte macrophage colony-stimulating factor (GM-CSF) were measured using ELISA kits (eBioscience), following the manufacturer's instructions.

JEG-3 cells [2] = assay: Influence of PIF and P4 on expression of HLA class I molecules (flow cytometry, Western blotting, surface antigen quantification); details: 1 μg/ml P4, 24 hours
Method: The cells were then incubated with the HLA-G specific mouse monoclonal antibody MEM-G9m followed by incubation with Alexa Fluor 488 conjugated antibody preparations. Fluorescence was detected by using BD Accuri C6 flow cytometer. The data was analyzed using a Flowing Software V2.5.1. […] Error bar indicates standard deviation from the mean. Statistical analysis was performed with SigmaPlot software. One way Analysis of Variance was employed to test the significance of differences among groups.
The collected cells were further tested for expression for class I HLA molecules by using specific monoclonal antibodies.
Treated and untreated JEG-3 cells, following exposure to test agents were detached, counted, and pelleted as described previously [14]. […] To quantify the final concentration of the proteins we used the Bradford assay following the previously described protocol with some modifications [15]. […] Five μl of each protein sample was then diluted 1:1 with PBS and incubated with the reading reagent at room temperature for 5 min. Finally, the protein concentration was determined using a spectrophotometer, extrapolating each absorbance value over the previously created standard curve. […] A pre-stained standard protein marker (Li-Cor Bioscience) was also loaded onto the gel and run parallel to the protein samples to be analyzed. […]

JEG-3 cells [3] = assay: Effect of PIF and P4 on JEG-3 proteome (2-DE, spot analysis, mass spectrometry)
Method: Cell lysates and their protein concentration were prepared and assessed as previously described Frozen cell pellets were dissolved in hot lysis buffer (1% SDS, 100 mM Tris-HCl), and sonicated. Five percent of 2-mercaptoethanol was added. Samples were then dissolved in solubilisation buffer (8 M urea, 2.5 M thiourea, 4% 3-[(3-cholamidopropyl) dimethylammonio]-1-propanesuflate, 50 mM DTT, 24 mM spermine tetrachloride) at room temperature for 1 h. The samples were centrifuged at 12000×g for 30 min. To concentrate the protein samples, acetone precipitation was used. Once the supernatant was discarded the protein pellets were washed with a mixture of ice-cold methanol-chloroform and re-suspended in isoelectric focusing buffer (IEF) (8 M urea, 2.5 M thiourea, 4% 3-[(3-cholamidopropyl) dimethylammonio]-1-propanesuflate).
The IPG strips were then focused using an IPGphor system (BioRad, USA). Rehydrated filter wicks were placed between the electrodes and the IPG strip. […] After IEF, strips were rinsed in deionized water, and stored at −80° C. until the second dimensional […].
For second dimensional […], IPG strips were incubated in equilibrium buffer 1 [6 M/l urea, 20% w/v glycerol, 4% w/v SDS, 0.375 M/l Tris-HCL (pH 8.8), 5% 2-mercaptoethanol] for 15 min at room temperature. […] Strips were then rinsed in electrophoresis buffer (60.57 g Tris base, 288.27 g glycine, 20 g SDS, double distilled H2O up to 20 L). The second dimensional analysis was carried out using a Criterion gel system (Bio-Rad). Each strip was placed into the well of a 12% SDS-PAGE gel (Bio-Rad) and sealed with agarosc solution. Electrophoresis was carried out at 50 V for 30 min and following this at 150 V for 4-5 h. The gel was then fixed overnight in fixing solution (50% methanol, 5% acetic acid, 45% water), and stained using the silver staining protocol.
The gels were scanned and analyzed using SameSpots analysis software (Nonlinear dynamics Ltd). Digitized images from 12 silver-stained gels were analyzed for spot detection and quantification. Image analysis included spot detection, editing, background subtraction and spot matching. A master image was then created, and all spots in the other gels were matched to this master image both manually and digitally. The size of a protein, which approximates the volume of the spot, was calculated by using the software. Spots identified as differentially present were excised and analyzed using mass spectrometry (MS) analysis.
Identified spots were manually excised from the 2-DE gels using a disposable sterile scalpel spot cutter and washed in molecular biology grade water. Each spot was then subjected to in gel digestion alkylation, along with tryptic digestion so as to yield peptide fragments for MS analysis following previously described protocols.
Peptide digests were subjected to MS analysis at the sub-picomole level through the use of a matrix assisted laser desorption ionization-time of flight (MALDI-TOF MS) so as to generate peptide mass fingerprinting (PMF). The MALDI-TOF analysis was carried out using a Bruker Daltonics Reflex IV instrument using a linear mode with a laser power attenuation setting at 30, as described previously.
The expression data were pre-processed by mean-centering (by division and medians), and over median normalized data. A heatmap was generated via hierarchical clustering for examining protein expression and treatment (http://cran.r-project.org). The generation of a heatmap for median centered protein expression data with horizontal hierarchical clustering of different proteins utilized the median linkage agglomeration method and vertical hierarchical clustering of treatment conditions, using complete linkage agglomeration. A correlation distance metric was used for clustering data.

[4] = P4 1 μg/ml or PIF 200 nM, 24 hours

Structure (SMILES): CC(=O)[C@H]1CC[C@H]2[C@@H]3CCC4=CC(=O)CC[C@]4(C)[C@H]3CC[C@]12C [P4, Progesterone]
- IFN-γ secretion (JEG-3 cells [1]): 10 pg/mL
- TNF-α secretion (JEG-3 cells [1]): 1 pg/mL
- GM-CSF secretion (JEG-3 cells [1]; PIF 200 nM, mean ± SEM): 310 ± 36.3 pg/mL
- IL-1β secretion (JEG-3 cells [1]; PIF 200 nM, mean ± SEM): 334 ± 27.7 pg/mL
- IL-8 secretion (JEG-3 cells [1]; PIF 200 nM, mean ± SEM): 685 ± 58.2 pg/mL
- TGF-β1 secretion (JEG-3 cells [1]; PIF 200 nM, mean ± SEM): 398 ± 32.4 pg/mL
- levels of HLA-G, -E, -F and -C (JEG-3 cells [2]): increased levels of HLA-G, -E, -F and -C
- Average Normalized Volumes, ATP5B (spot 71) (JEG-3 cells [3]; [4]): 283.644
- Average Normalized Volumes, BBB (spot 92) (JEG-3 cells [3]; [4]): 544.421
- Average Normalized Volumes, CD59 (spot 51) (JEG-3 cells [3]; [4]): 388.079
- Average Normalized Volumes, CLIC3 (spot 69) (JEG-3 cells [3]; [4]): 220.958
- Average Normalized Volumes, DCBD2 (spot 67) (JEG-3 cells [3]; [4]): 413.865
- Average Normalized Volumes, EGFR (spot 30) (JEG-3 cells [3]; [4]): 313.949
- Average Normalized Volumes, FOXP3 (spot 98) (JEG-3 cells [3]; [4]): 1035.457
- Average Normalized Volumes, HLAG (spot 89) (JEG-3 cells [3]; [4]): 961.078
- Average Normalized Volumes, HS74L (spot 8) (JEG-3 cells [3]; [4]): 407.206
- Average Normalized Volumes, HSP71 (spot 2) (JEG-3 cells [3]; [4]): 328.658
- Average Normalized Volumes, LMNA (spot 34) (JEG-3 cells [3]; [4]): 276.712
- Average Normalized Volumes, PDIA3 (spot 24) (JEG-3 cells [3]; [4]): 425.280
- Average Normalized Volumes, PRDX2 (spot 66) (JEG-3 cells [3]; [4]): 144.399
- Average Normalized Volumes, PRGR (spot 55) (JEG-3 cells [3]; [4]): 277.710
- Average Normalized Volumes, ZSC21 / TTP (spot 32) (JEG-3 cells [3]; [4]): 123.015
- number of differentially expressed proteins up-regulated (of 19) (JEG-3 cells [3]; hierarchical clustering, vs control cells): five
